Reference: US20110053835A1, “ANTIMICROBIAL PEPTIDES DERIVED FROM CAP18” (OctoPlus Sciences B.V., priority 2004, published 2011)
Converted amounts (≈) assume the structure as drawn. Where two headings read alike, the source gives them in different places. Marks after values point to notes of the source that are not given here.

Experiments:
[1] = test system: peripheral blood mononuclear cells (PBMC); test: T cell proliferation ([3H]thymidine incorporation); assay type: cell-based; conditions: fraction of positive stimulation indices (positive: >2), 10 μg/ml compound, 5 days
Method: (§1) The compounds prepared according to example 1 were tested for their therapeutically undesirable immunogenic activity by using Elispot, T-cell proliferation, ERK-activation, and neutrophil chemotaxis assays. The Elispot assay is applicable to determine effects of drugs, chemicals or other compounds on cytokine secretion in vitro, thereby providing data on their putative modulatory effects on immune function in vivo. The results of the assay are given as fraction of positive responses to IFN-gamma. […] Cytokines are direct mediators of inflammation and influence the progress and direction of many immunological reactions. Perturbation of the balance in cytokine production is widely recognized as a critical factor in several disease states. This balance is already disturbed in the case of conditions such as otitis media with effusion and sinusitis. T. cell proliferation is also not favorable in this situation, because this will also stimulate the immune response that is already out of control.
(§2) For T cell proliferation, 150,000 peripheral blood mononuclear cells (PBMC) were cultured in the absence or presence of 10 μg/ml of the compounds for 5 days in 96 well round bottom plates (Costar Inc. Cambridge, Mass.) in a final volume of 150 μl IMDM complete. As a positive control, PBMC were cultured in the presence of 25 U/ml recombinant IL-2. During the final 20 hours of culture, PBMC were pulsed with [3H]thymidine (0.5 microCi/well), after which 3H-incorporation was measured by liquid scintillation counting. For detection of the T cell cytokines IFN and IL-10 by Elispot analysis, 1.5×10^6 PBMC were cultured in 0.5 ml IMDM complete in the absence or presence of various concentrations of synthetic peptide. As a positive control PBMC were stimulated by 10 μg/ml poke weed mitogen (PWM). After 48 hours of culture, PBMC were harvested by gently rinsing the wells with warm IMDM to collect non-adherent cells, which were washed in a large volume of IMDM. PBMC were subsequently plated on antibody-precoated ELISA plates and cultured for 5 hours in IMDM supplemented with 2% pooled human AB serum at 37° C. 5% CO2, after which the plates were developed according to the manufacturer's protocol (U-CyTech, Utrecht, The Netherlands), Spots were counted on an Olympus microscope and analyzed with Olympus Micro Image 4.0 software (Paes Nederland, Zoeterwoude, The Netherlands). The final results are expressed as fraction of positive stimulation indices (positive: >2).

[2] = test system: LPS; test: LPS neutralization, whole blood (WB) assay; assay type: cell-based; conditions: ± SD
Method: (§3) The compounds prepared according to example 1 were tested for their capability to neutralize the bacterial toxin LPS with a limulus amoebocyte lysate (LAL) assay and with a whole blood (WB) assay. LTA neutralization was also measured with a whole blood assay. Peptide LL-37 was used as a positive control. The peptide concentration whereby 50% LPS is neutralized was used as a measure of the peptide's activity. These concentration values were as in table 1. The differences between the compounds within each assay were not statistically significant.

[3] = test system: LPS; test: LPS neutralization, limulus amoebocyte lysate (LAL) assay; assay type: biochemical; conditions: ± SD
Method: as §3

[4] = test system: P. aeruginosa ATCC9027
Method: (§4) The in vitro antibacterial and antifungal activity of P60.4-Ac and LL-37 were determined as the minimum inhibitory concentrations (MIC) by a microdilution susceptibility test in 96-well microtiter plates, according to a modified version of R. Hancock's “Modified MIC method for cationic antimicrobial peptides” [13]. The antibacterial activity was tested on the reference strains Escherichia coli ATCC 8739, Pseudmonas aeruginosa ATCC 9027. The antifungal activity was evaluated on Candida albicans ATCC 10231 and Aspergillus niger ATCC 14406. The antimicrobial activity assay was conducted with different concentrations of P60.4Ac and LL-37 to compare their effects on the bacterial or fungal growth. Antibacterial activity was examined using log-phase cultured bacteria in Trypticase Soy Broth at 37° C. The cultures were diluted with 10 mM Sodium Phosphate buffer pH 7.4 to give approximately 5.0×10^6 CFU/ml. 10 μl of the diluted test strain was transferred to a 96-well plate and 100 μl of the different peptide concentrations was added to each well. The plates were incubated at 37° C. for 24 hours and are then scored for growth by visual inspection on a light box. They are then returned for incubation for a further 24 hours after which time they are re-evaluated for growth. The yeast strain C. albicans was prepared as described above. The filamentous fungi A. niger was used as a spore suspension, cultured on Sabourauds Dextrose Agar plates at 20-25° C. for 6-10 days or until adequate sporulation has occurred. The spores were harvested by scrapping and if necessary the concentration was adjusted to a final concentration of 5×10^6 CFU/ml.

[5] = test system: Candida albicans ATCC 10231
Method: as §4

[6] = test system: Aspergillus niger ATCC 14406
Method: as §4

[7] = test system: Escherichia coli ATCC 8739; conditions: mean of three determinations
Method: as §4

[8] = test system: neutrophils isolated from peripheral blood; test: Neutrophil chemotaxis (modified Boyden chamber); assay type: cell-based; conditions: percentage neutrophils on the membrane compared to positive control 10^−8 M FMLP; 90 minutes at 37° C.
Method: Neutrophils chemotaxis was measured with neutrophils isolated from peripheral blood using Percoll density centrifugation (density: 1.082 g/ml). The cells were resuspended at a concentration of 2.5×10^6 cells/ml in chemotaxis medium (20 mM N-2-hydroxyethylpiperazine-N′-2-ethanesulfonic acid (HEPES buffer) HEPES, 132 mM NaCl, 6 mM KCl, 1.2 mM KH2PO4, 1 mM MgSO4, 5.5 mM glucose, 0.1 mM CaCl2 and 0.5% (wt/vol) human serum albumm [Central Laboratory of the Netherlands Red Cross Blood Transfusion Service (CLB), Amsterdam, The Netherlands] diluted 1:1 with serum-free RPMI. The chemotactic activity of the compounds was assessed using a modified Boyden Camber technique. Briefly, 26 μl stimuli diluted in HEPES buffer was added to the wells of the lower compartment, and 50 μl of neutrophil suspension (2.5×10^6 cells/ml) was added to the upper compartment. The compartments were separated by two filters: a lower filter with a pore size of 0.45 μm (Millipore Products, Bedford, Mass.) and an upper filter with a pore size of 8 μm (Sartorius Filter, San Francisco, Calif.). After incubation for 90minutes at 37° C., the upper filters were removed, fixed in ethanol-butanol (80:20, vol/vol), and stained with Weigert solution. To determine neutrophil chemotactic activity, neutrophils were counted in six random high-power fields (×400), and the percentage neutrophils on the membrane as compared to the positive control (10^−8 M, N-formylmethionyl-leucyl-phenylalanine (FMLP, Sigma) was calculated.

[9] = test system: peripheral blood mononuclear cells (PBMC); test: γ-IFN Elispot assay; assay type: cell-based; conditions: fraction of positive stimulation indices (positive: >2), 48 hours of culture
Method: as §1, §2

[10] = test system: LTA; test: LTA neutralization, whole blood (WB) assay; assay type: cell-based; conditions: ± SD
Method: as §3

[11] = test system: rabbits; conditions: 0.5 ml peptide solution 2 mg/ml on clipped skin for 4 hours, semi-occlusive; observed 1-72 hours
Method: (§5) For the skin and eye irritation tests, three rabbits were exposed to 0.5 ml phosphate buffered peptide solution (2 mg/ml), applied onto clipped skin for 4 hours using a semi-occlusive dressing. Observations were made 1, 24, 48, and 72 hours after exposure. Single samples of 0.1 ml of phosphate buffered (pH7.5) peptide solution (2 mg/ml) were instilled into one eye of each of three rabbits to perform an acute eye irritation/corrosion study. Observations were made 1, 24, 48, and 72 hours after instillation.

[12] = test system: rabbits
Method: as §5

[13] = test system: rats; test: Single and repeated dose intravenous systemic toxicity study; assay type: in vivo, rat
Method: The systemic toxicity of P60.4Ac was assessed in a single and repeated dose toxicity study in rats. The peptide was administered daily intravenously in escalating doses. In this phase, the Maximum Tolerated Dose (MTD) was established. Repeated dose toxicity was also studied in the MTD phase. In the dose escalation phase, 9 rate were divided in three groups and received 0.4, 2 or 8 mg/kg/day for two days. Clinical signs were recorded twice daily on days of dosing and one day after dosing, body weights were recorded prior to the first dose and one day after dosing. In the MTD phase, 5 female and 5 male rats received 8 mg/kg/day for 5 following days. Clinical signs were recorded twice daily on days of dosing, body weight on day 1 and 6. Clinical laboratory investigations were performed prior to necropsy. Macroscopy was performed at termination of the MTD phase.

[14] = test system: guinea pigs; assay type: in vivo, guinea pig
Method: The skin was sutured closed and follow-up auditory testing was performed.
Auditory brainstem response (ABR) was performed prior to drug administration and directly after surgery and 3, 7, 14 and 22 days later, using a computer-based signal averaging system (Tucker-Davis Technology, Alucha, Fla., USA). Guinea pigs were anesthetized and an insert earphone was placed into the external ear canal. […] Ground electrodes were placed over the neck muscles. […] Stimulus intensities were measured and expressed as dB.

[15] = P. aeruginosa ATCC9027, incubation 24 h
[16] = P. aeruginosa ATCC9027, incubation 48 h
[17] = C. albicans ATCC10231, incubation 24 h
[18] = C. albicans ATCC10231, incubation 48 h
[19] = A. niger ATCC14406, incubation 24 h
[20] = A. niger ATCC14406, incubation 48 h
[21] = E. coli ATCC8739, incubation 24 h
[22] = E. coli ATCC8739, incubation 48 h
[23] = intravenous, 8 mg/kg/day for 5 days
[24] = intravenous, 0.4, 2 or 8 mg/kg/day for two days

Molecule | T cell proliferation [1] | Compound concentration for 50% LPS-neutralization, LPS (WB) [2] | Compound concentration for 50% LPS-neutralization, LPS (LAL) [3] | MIC [4, 15] | MIC [4, 16] | MIC [5, 17] | MIC [5, 18] | MIC [6, 19] | MIC [6, 20] | MIC [7, 21] | MIC [7, 22] | Chemotaxis (%) [8] | γ-IFN Elispot [9] | Compound concentration for 50% LTA-neutralization, LTA (WB) [10] | also measured
CC[C@H](C)[C@H](NC(=O)[C@H](CCCCN)NC(=O)[C@H](CCC(=O)O)NC(=O)[C@H](CCCCN)NC(=O)[C@H](CO)NC(=O)[C@H](CCCCN)NC(=O)[C@H](CCCNC(=N)N)NC(=O)[C@H](Cc1ccccc1)NC(=O)[C@H](Cc1ccccc1)NC(=O)[C@H](CC(=O)O)NC(=O)CNC(=O)[C@H](CC(C)C)NC(=O)[C@@H](N)CC(C)C)C(=O)NCC(=O)N[C@@H](CCCCN)C(=O)N[C@@H](CCC(=O)O)C(=O)N[C@@H](Cc1ccccc1)C(=O)N[C@@H](CCCCN)C(=O)N[C@@H](CCCNC(=N)N)C(=O)N[C@H](C(=O)N[C@H](C(=O)N[C@@H](CCC(N)=O)C(=O)N[C@@H](CCCNC(=N)N)C(=O)N[C@H](C(=O)N[C@@H](CCCCN)C(=O)N[C@@H](CC(=O)O)C(=O)N[C@@H](Cc1ccccc1)C(=O)N[C@@H](CC(C)C)C(=O)N[C@@H](CCCNC(=N)N)C(=O)N[C@@H](CC(N)=O)C(=O)N[C@@H](CC(C)C)C(=O)N[C@H](C(=O)N1CCC[C@H]1C(=O)N[C@@H](CCCNC(=N)N)C(=O)N[C@H](C(=O)N[C@@H](CCC(=O)O)C(=O)N[C@@H](CO)C(=O)O)[C@@H](C)O)C(C)C)[C@@H](C)CC)C(C)C)[C@@H](C)CC [LL-37, reference compound] | 6/8 | 1.2 ± 0.3 µg/mL | 1.3 ± 0.2 µg/mL | 3 µM (≈ 13.5 µg/mL) | 14^d μM | 12 µM (≈ 53.9 µg/mL) | >18^e μM | >18 µM | >18^e μM | 3 µM (≈ 13.5 µg/mL) | 7^b μM | 84 ± 17% | 4/8 | 1.6 ± 0.5 µg/mL | activity against A. niger ([6]; up to 18 μM): no activity
Ac-IGKEFKRIVERIKRFLRELVRPLR-NH2 [Compound P60.4Ac] | – | – | – | 3 µM | 6^b μM | 6 µM | 6^f μM | 18 µM | >18^e μM | 2 µM | 3^c μM | – | – | – | skin irritation [11]: no skin irritation was detectable; time to complete resolution of conjunctival redness after instillation ([12]; 0.1 ml peptide solution 2 mg/ml into one eye): ≤ 24 h; eye irritation finding after ophthalmic instillation ([12]; 0.1 ml phosphate buffered (pH7.5) peptide solution 2 mg/ml into one eye): redness of the conjunctivae; clinical signs, body weight, hematology, clinical biochemistry and macroscopic examination, MTD phase [13, 23]: no clear peptide related findings; mortality, MTD phase [13, 23]: no mortality occurred; clinical signs and body weight, dose escalation phase [13, 24]: no clear deviations; mortality, dose escalation phase [13, 24]: no mortality occurred; ABR threshold change ([14]; P60.4-Ac 2 mg/ml in PBS, 22 days after surgery): −7 dB; ABR threshold change ([14]; P60.4-Ac as formulation II, both animals, 22 days): 1 dB
IGKEFERIVQRIKDFLRNLVPRTE [Compound P60, 24 amino acid peptide derived from CAP18/LL-37] | 7/8 | 1.4 ± 0.1 µg/mL | 1.5 ± 0.5 µg/mL | – | – | – | – | – | – | – | – | 76 ± 39% | 1/8 | 2.1 ± 0.7 µg/mL | –
IGKEFKRIVERIKRFLRELVRPLR [Compound P60.4] | 2/8 | 2.1 ± 0.6 µg/mL | 1.7 ± 0.6 µg/mL | – | – | – | – | – | – | – | – | 0 ± 0% | 3/8 | 2.0 ± 1.3 µg/mL | –
IGKEFKRIVQRIKDFLRNLVPRTE [Compound P60.Ac] | 4/8 | 2.4 ± 0.5 µg/mL | 1.8 ± 0.8 µg/mL | – | – | – | – | – | – | – | – | 61 ± 36% | 3/8 | 2.1 ± 0.1 µg/mL | –
